Test results as given in patent US6537783B1, “Prefunctionalized nucleotide and process for amplifying a sequence using a prefunctionalized nucleotide” (Bio Merieux, priority 1996, dated 2003).

Experiments:
[1] = system: Mycobacterium tuberculosis 16S RNA; assay: Incorporation yield of the nucleotide in the TMA amplification products (HPLC of digested amplicons; fluorescence for fluorescein-UTP); assay type: biochemical; conditions: 10^6 copies target, total 4 mM
Protocol: The incorporation of the prefunctionalized nucleotides 27a, 27b and 32, and, by way of comparison, Boerhinger's labeled nucleotide ref. 1 427 857, into the products of the TMA amplification reaction is tested using Gen-Probe amplified™ MTD2 (amplified Mycobacterium tuberculosis direct test) kits. This reaction amplifies a 136-base fragment of the mycobacterial 16S RNA. It uses four enzymic activities (DNA-dependent RNA polymerase, DNA-dependent DNA polymerase, RNA-dependent DNA polymerase and ribonuclease H) and two enzymes, T7 RNA polymerase and AMV reverse transcriptase. By means of recurrent reactions involving steps of transcription, reverse transcription and digestion of the RNA contained in the DNA:RNA double strands, which steps resemble an RNA virus replication cycle, this reaction enables a nucleic acid sequence which is recognized by two primers (a simple primer and a primer containing the T7 RNA polymerase promoter) to be amplified specifically. The amplification factor is very substantial ([…]) and the sensitivity is very good (from 1 to 10 copies). 90% of the resulting products consist of single-stranded RNAs and 10% consist of double-stranded DNAs.
Amplification reactions are carried out using 10^6 copies of Mycobacterium tuberculosis 16S RNA. This target RNA is previously obtained and quantified by means of the following method: the 16S RNA gene is cloned into a plasmid under the control of a promoter. The 16S RNA is then obtained by in vitro transcription. This RNA is purified by extraction with phenol/chloroform and filtration through microcon 30™ (Amicon). It is assayed by its absorption at 260 nm.
The standard TMA reactions contain 4 mM of each of the natural rNTPs (ATP, CTP, GTP and UTP). For the purpose of incorporating the prefunctionalized nucleotides into the amplification products, the reaction is performed while including one of these modified nucleotides in the reaction buffer. The reaction is studied in the presence of different ratios between the concentrations of the modified nucleotide and the natural nucleotide, while at the same time ensuring that the total concentration of each nucleotide of the same series, whether modified or natural, is 4 mM. The ratios studied are 0%, 10%, 30%, 50% and 70% (except in the case of the fluorescein-UTP, which it was not possible to test at 70%). A negative control is carried out, with this negative control consisting of a reaction which comprises all the reagents, including the highest ratio of modified nucleotides employed (70 or 50%), apart from the enzymes (which are replaced by the buffer used for redissolving the lyophilized enzymes).
The ratio between the incorporated prefunctionalized nucleotide and the analogous natural nucleotide is determined in order to assess the prefunctionalization of the amplicons obtained in the presence of the prefunctionalized nucleotides 27a (CTP-(N4)-C6O2—NH2) and 27b (CTP-(N4)-C4—NH2) and, by way of comparison, in the presence of the labeled nucleotide fluorescein-12-UTP (Boerhinger, ref. 1 427 857).
The amplification products obtained on carrying out Example 22 are separated from the nucleotides which are in excess in the reaction by means of filtration through Microcon 30™ (from Amicon) and dissolved in 50 μl of water. In the case of the amplification in the presence of fluorescein-12-UTP, the purification is carried out on sephadex G50 (the fluorescein is absorbed on Microcon).
The absorption of the amplification products at 260 nm is then determined (the control without enzyme should have a very low concentration).
In the case of the amplification reactions which include the prefunctionalized nucleotides (and their controls), a step of digesting the nucleic acids down to the nucleoside stage is then carried out:
5 10^14 amplification product copies (approximately 35 μg) are diluted in a final volume of 86 μl of water (in the case of the control without enzyme, a volume is used which is equal to the largest sample […] volume). […]

[2] = system: Mycobacterium tuberculosis 16S RNA; assay: Impact of incorporation of prefunctionalized nucleotides on TMA sensitivity (ELOSA, electrophoresis, Northern blotting); assay type: biochemical; conditions: for sensitivity of the TMA reaction: 10,000 to 10 target copies, ratios 100% to 0%, at a determinable concentration of prefunctionalized nucleotide
Source text: In the abovementioned FIGS. 4 and 5, the number of copies of the target per reaction are given on the x axis and the number of amplicons obtained per microliter of reaction (final reaction volume=100 microliters) are given on the y axis. Specific symbols, for example ▪, □, ▴, ◯, ●, and a percentage, are assigned to the curves in FIGS. 4 and 5. This percentage corresponds to the percentage of the prefunctionalized nucleotide(s) as compared with the natural nucleotides in the TMA amplification reaction. FIGS. 4 and 5 show, respectively, the results of the semiquantification, by means of the ELOSA technique (described in Patent Application PCT WO 92/19812), of the number of amplicons produced from a target range of Mycobacterium tuberculosis 16S RNA in the presence of different ratios of 27a and 27b nucleotides as compared with their respective natural nucleotides.
In order to study the sensitivity of TMA which includes incorporation of prefunctionalized nucleotides, the TMA was performed using decreasing quantities of the target (Mycobacterium tuberculosis 16S RNA, described in Example 22) (10,000, 1000, 100, 10 and 0 copies) in the presence of different ratios between the prefunctionalized nucleotide and its natural analog (100%, 70%, 50%, 30%, 10% and 0%). The same prefunctionalized nucleotides are tested, i.e. 27a (CTP-(N4)-C6O2—NH2) and 27b (CTP-(N4)-C4—NH2).
The reaction products are studied, inter alia, by the method described in Example 22.
The reaction products are also analyzed in a semi-quantitative manner by means of ELOSA (PCT WO 92/19812) and comparison of the intensity of the signals with those of standard ranges.
The reactions which are performed in the presence of (a) prefunctionalized nucleotide(s) are analyzed by electrophoresis and staining, Northern blotting and ELOSA.

[3] = [Prefunctionalized nucl.]/[natural nucl.] in reaction 30%
[4] = [Prefunctionalized nucl.]/[natural nucl.] in reaction 50%
[5] = [Prefunctionalized nucl.]/[natural nucl.] in reaction 70%
[6] = [Prefunctionalized nucl.]/[natural nucl.] in reaction 10%

Substance: CTP-(N4)-C4—NH2 [nucleotide 27b]
- incorporation yield: incorporated modified nucleotide / natural nucleotide in TMA amplification products [1, 3]: 1/48
- incorporation yield: incorporated modified nucleotide / natural nucleotide in TMA amplification products [1, 4]: 1/15
- incorporation yield: incorporated modified nucleotide / natural nucleotide in TMA amplification products [1, 5]: 1/6
- sensitivity of the TMA reaction [2]: not significantly affected
- ability to replace the natural nucleotide in TMA ([2]; FIG. 5, ELOSA): able to replace the natural nucleotide

Substance: CTP-(N4)-C6O2—NH2 [nucleotide 27a]
- incorporation yield: incorporated modified nucleotide / natural nucleotide in TMA amplification products [1, 6]: 1/33
- incorporation yield: incorporated modified nucleotide / natural nucleotide in TMA amplification products [1, 3]: 1/9
- incorporation yield: incorporated modified nucleotide / natural nucleotide in TMA amplification products [1, 4]: 1/5
- incorporation yield: incorporated modified nucleotide / natural nucleotide in TMA amplification products [1, 5]: 1/3
- sensitivity of the TMA reaction [2]: not significantly affected

Substance: fluorescein-12-UTP [reference compound]
- incorporation yield: incorporated modified nucleotide / natural nucleotide in TMA amplification products [1, 6]: 1/200
- incorporation yield: incorporated modified nucleotide / natural nucleotide in TMA amplification products [1, 3]: 1/45
- incorporation yield: incorporated modified nucleotide / natural nucleotide in TMA amplification products [1, 4]: 1/30
